# Reference: patent US20230381332A1, “Deuterated Camptothecin Derivative And Antibody-drug Conjugate Thereof” (Baili-Bio (Chengdu) Pharmaceutical Co., Ltd., priority 2020, published 2023)
# Assay: Clearance half-life test of deuterated camptothecin drugs in liver microsomes
# Type: in vitro ADME, Human
# Conditions: human liver microsomes 1.0 mg/ml, 10 μM test article, NADPH 1.0 mM, 37° C., 120 minutes
# Procedure: Embodiment 36: Clearance Half-Life Test of Deuterated Camptothecin Drugs
# Human liver microsomes (supplied by Xenotech))
# 1. Add the working solution of the test substance to the liver microsome working solution and pre-incubate at 37° C. for 5 minutes, then add the prepared NADPH working solution and mix well. Make the reaction volume of the incubation system reach 200 μL, and the liver microsomes concentration in the incubation system is 1.0 mg/mL, the test substance concentration is 10 μM. The incubation tube is incubated in a water bath at 37° C. for 120 minutes. In the incubation system of the test substance, total organic solvents (DMSO and acetonitrile or other organic The minimum volume content of the solvent) is <1%, and the DMSO content is <0.1%. All operations are performed on wet ice.
# 2. For the blank sample, add the corresponding volume of phosphate buffer solution instead of the working solution of the test substance. For the 0 min sample, first add the stop solution and the liver microsome solution and mix well, and then add the working solution of the test substance.
# 3. At the end of the incubation, add 400 μL of stop solution to terminate the reaction, and remove the incubation sample from the water bath.
# 4. After the reaction was terminated, the sample was shaken and centrifuged at a centrifugal force of 4700 g for 10 minutes. After centrifugation, 200 μL of the supernatant was pipetted into a 96-well plate and directly used for LC-MS analysis to analyze metabolites and main drug ratio.
row,Compound,Ratio of main drug after incubation
1,[2H]C(O)C(=O)N[C@H]1CCc2c(C)c(F)cc3nc4c(c1c23)Cn1c-4cc2c(c1=O)COC(=O)[C@]2(O)CC (stereo partly drawn) [D-D1],98%
2,"CC[C@@]1(O)C(=O)OCc2c1cc1n(c2=O)Cc2c-1nc1cc(F)c(C)c3c1c2[C@@H](NC(=O)CO)CC3 [Compound 2, reference compound]",65%

# Same assay, conditions: human, 120 min, 10 μM
row,Compound,Ratio of main drug after incubation
1,[2H]C([2H])([2H])N(C(=O)CO)[C@@H]1CCc2c(C)c(F)cc3nc4c(c1c23)Cn1c-4cc2c(c1=O)COC(=O)[C@]2(O)CC [D-D15],91%
2,"CC[C@@]1(O)C(=O)OCc2c1cc1n(c2=O)Cc2c-1nc1cc(F)c(C)c3c1c2[C@@H](NC(=O)[C@H](C)O)CC3 [Compound 3, reference compound]",56%
3,[2H]C([2H])([2H])C([2H])(O)C(=O)N[C@H]1CCc2c(C)c(F)cc3nc4c(c1c23)Cn1c-4cc2c(c1=O)COC(=O)[C@]2(O)CC (stereo partly drawn) [D-D11],96%
4,[2H]C(O)(C(=O)N[C@H]1CCc2c(C)c(F)cc3nc4c(c1c23)Cn1c-4cc2c(c1=O)COC(=O)[C@]2(O)CC)C1CC1 (stereo partly drawn) [D-D7],96%
5,[2H]C(C)(O)C(=O)N[C@H]1CCc2c(C)c(F)cc3nc4c(c1c23)Cn1c-4cc2c(c1=O)COC(=O)[C@]2(O)CC (stereo partly drawn) [D-D3],97%
6,"CC[C@@]1(O)C(=O)OCc2c1cc1n(c2=O)Cc2c-1nc1cc(F)c(C)c3c1c2[C@@H](NC(=O)[C@@H](O)C1CC1)CC3 [Compound 7, reference compound]",85%
7,[2H]C([2H])([2H])C(O)C(=O)N(C)[C@@H]1CCc2c(C)c(F)cc3nc4c(c1c23)Cn1c-4cc2c(c1=O)COC(=O)[C@]2(O)CC (stereo partly drawn) [D-D19],97%
8,[2H]C(O)(C(=O)N[C@H]1CCc2c(C)c(F)cc3nc4c(c1c23)Cn1c-4cc2c(c1=O)COC(=O)[C@]2(O)CC)C(F)(F)F (stereo partly drawn) [D-D5],99%
9,"CC[C@@]1(O)C(=O)OCc2c1cc1n(c2=O)Cc2c-1nc1cc(F)c(C)c3c1c2[C@@H](NC(=O)[C@H](O)C(F)(F)F)CC3 [Compound 5, reference compound]",73%
